Measurements as given in patent US20240150293A1, “SPIROCYCLOHEXANE DERIVATIVES, PHARMACEUTICAL COMPOSITIONS CONTAINING THEM AND THEIR USES AS ANTI-APOPTOTIC INHIBITORS” (LES LABORATOIRES SERVIER, priority 2021, published 2024).

target: Mcl-1 protein (UniProtKB Q07820) (Homo sapiens (Human), UniProt Q07820); assay: Inhibition of Mcl-1 by the fluorescence polarisation assay (Example A, Method A); format: binding; conditions: fluorescence polarization assay
In short: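 Protein (5 nM) and fluorescein-tagged peptide tracer (1 nM) incubated with 11-point compound series for 2 h at room temperature in HEPES/NaCl/Tween 20 buffer, pH 7.4, 5% DMSO. Displacement read as decrease in polarisation; IC50 fitted by 4-parameter logistic, converted to Ki (cKi or eKi).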

Chain of Mcl-1 protein (Q07820 whole entry): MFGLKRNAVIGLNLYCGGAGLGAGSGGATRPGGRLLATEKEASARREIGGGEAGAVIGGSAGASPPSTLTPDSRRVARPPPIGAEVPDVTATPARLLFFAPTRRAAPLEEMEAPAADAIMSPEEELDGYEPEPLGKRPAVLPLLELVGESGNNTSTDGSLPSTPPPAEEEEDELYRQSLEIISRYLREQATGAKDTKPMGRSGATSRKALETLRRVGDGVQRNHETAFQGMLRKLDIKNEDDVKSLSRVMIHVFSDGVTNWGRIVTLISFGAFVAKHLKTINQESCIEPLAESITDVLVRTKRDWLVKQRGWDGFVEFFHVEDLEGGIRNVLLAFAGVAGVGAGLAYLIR

| SMILES | Ki [nM] |
| --- | --- |
| O=C(O)[C@]1(Nc2cccc(Br)c2)CC[C@@]2(CC1)C(C#CCOc1ccccc1)=Cc1ccccc12 [Example 165, (1r,4r)-4-(3-bromoanilino)-2′-(3-phenoxyprop-1-yn-1-yl)spiro[cyclohexane-1,1′-indene]-4-carboxylic acid] | 90400 |
| O=C(O)[C@]1(Nc2cccc(Cl)c2)CC[C@]2(CC1)C(CCNc1ccccc1)=Cc1ccccc12 [Example 166, (1r,4r)-2′-(2-anilinoethyl)-4-(3-chloroanilino)spiro[cyclohexane-1,1′-indene]-4-carboxylic acid] | 688 |
| O=C(O)[C@]1(Nc2cccc(Cl)c2)CC[C@]2(CC1)C(Cc1ccccc1)=Cc1ccccc12 [Example 168, (1r,4r)-2′-benzyl-4-(3-chloroanilino)spiro[cyclohexane-1,1′-indene]-4-carboxylic acid] | 1670 |
| O=C(O)[C@]1(Nc2cccc(Cl)c2)CC[C@]2(CC1)C(C#Cc1ccccn1)=Cc1ccccc12 [Example 170, (1s,4s)-4-(3-chloroanilino)-2′-[(pyridin-2-yl)ethynyl]spiro[cyclohexane-1,1′-indene]-4-carboxylic acid] | 1920 |
| O=C(O)[C@]1(Nc2cccc(Cl)c2)CC[C@]2(CC1)C(CCOc1ccccc1)=Cc1ccccc12 [Example 171, (1r,4r)-4-(3-chloroanilino)-2′-(2-phenoxyethyl)spiro[cyclohexane-1,1′-indene]-4-carboxylic acid] | 51.4 |
| O=C(O)[C@]1(Nc2cccc(Cl)c2)CC[C@]2(CC1)C(C#Cc1ccncc1)=Cc1ccccc12 [Example 173, (1s,4s)-4-(3-chloroanilino)-2′-[(pyridin-4-yl)ethynyl]spiro[cyclohexane-1,1′-indene]-4-carboxylic acid] | 455 |
| O=C(O)[C@]1(Nc2cccc(Cl)c2)CC[C@]2(CC1)C(COCc1ccccc1)=Cc1ccccc12 [Example 179, (1s,4s)-2′-[(benzyloxy)methyl]-4-(3-chloroanilino)spiro[cyclohexane-1,1′-indene]-4-carboxylic acid] | 506 |
| O=C(NCc1ccccc1)C1=Cc2ccccc2[C@]12CC[C@@](Nc1cccc(Cl)c1)(C(=O)O)CC2 [Example 180, (1s,4s)-2′-(benzylcarbamoyl)-4-(3-chloroanilino)spiro[cyclohexane-1,1′-indene]-4-carboxylic acid] | 12800 |
| CN(Cc1ccccc1)C(=O)C1=Cc2ccccc2[C@]12CC[C@@](Nc1cccc(Cl)c1)(C(=O)O)CC2 [Example 181, (1s,4s)-2′-[benzyl(methyl)carbamoyl]-4-(3-chloroanilino)spiro[cyclohexane-1,1′-indene]-4-carboxylic acid] | 11400 |
| Cc1cncn(CCCC2=Cc3ccccc3[C@]23CC[C@@](Nc2cccc(Cl)c2)(C(=O)O)CC3)c1=O [Example 182, (1r,4r)-4-(3-chloroanilino)-2′-[3-(5-methyl-6-oxopyrimidin-1 (6H)-yl)propyl]spiro[cyclohexane-1,1′-indene]-4-carboxylic acid] | 1620 |
| CN(Cc1ccccc1)CC1=Cc2ccccc2[C@]12CC[C@@](Nc1cccc(Cl)c1)(C(=O)O)CC2 [Example 184, (1s,4s)-2′-{[benzyl(methyl)amino]methyl}-4-(3-chloroanilino)spiro[cyclohexane-1,1′-indene]-4-carboxylic acid] | 1230 |
| Cc1cnccc1OCCC1=Cc2ccccc2[C@]12CC[C@@](Nc1cccc(Cl)c1)(C(=O)O)CC2 [Example 189, (1r,4r)-4-(3-chloroanilino)-2′-{2-[(3-methylpyridin-4-yl)oxy]ethyl}spiro[cyclohexane-1,1′-indene]-4-carboxylic acid] | 121 |
| Cc1cnccc1OCCCOC1=Cc2ccccc2[C@]12CC[C@@](Nc1cccc(Br)c1)(C(=O)O)CC2 [Example 193, (1s,4s)-4-(3-bromoanilino)-2′-{3-[(3-methylpyridin-4-yl)oxy]propoxy}spiro[cyclohexane-1,1′-indene]-4-carboxylic acid] | 531 |

Second part, the compound after the results:

| Ki [nM] | SMILES |
| --- | --- |
| 32700 | O=c1ccn(CCCC2Cc3ccccc3[C@]23CC[C@@](Nc2cccc(Cl)c2)(C(=O)O)CC3)cc1 (some centres unmarked) [Example 167, (1r,4r)-4-(3-chloroanilino)-2′-[3-(4-oxopyridin-1 (4H)-yl)propyl]-2′,3′-dihydrospiro[cyclohexane-1,1′-indene]-4-carboxylic acid] |
| 4770 | O=C(O)[C@]1(Nc2cccc(Cl)c2)CC[C@@]2(CC1)c1ccccc1CC2Cc1ccccc1 (some centres unmarked) [Example 169, (1r,4r)-2′-benzyl-4-(3-chloroanilino)-2′,3′-dihydrospiro[cyclohexane-1,1′-indene]-4-carboxylic acid] |
| 138 | COc1cc(OCCC2Cc3ccccc3[C@]23CC[C@@](Nc2cccc(Cl)c2)(C(=O)O)CC3)ccn1 (some centres unmarked) [Example 174, (1r,4r)-4-(3-chloroanilino)-2′-{2-[(2-methoxypyridin-4-yl)oxy]ethyl}-2′,3′-dihydrospiro[cyclohexane-1,1′-indene]-4-carboxylic acid] |
| 1540 | O=C(O)[C@]1(Nc2cccc(Br)c2)CC[C@@]2(CC1)c1ccccc1CC2CCc1ccccn1 (some centres unmarked) [Example 175, (1r,4r)-4-(3-bromoanilino)-2′-[2-(pyridin-2-yl)ethyl]-2′,3′-dihydrospiro[cyclohexane-1,1′-indene]-4-carboxylic acid] |
| 226 | O=C(O)[C@]1(Nc2cccc(Cl)c2)CC[C@@]2(CC1)c1ccccc1CC2CCOc1ccccc1 (some centres unmarked) [Example 177, (1r,4r)-4-(3-chloroanilino)-2′-(2-phenoxyethyl)-2′,3′-dihydrospiro[cyclohexane-1,1′-indene]-4-carboxylic acid] |
| 2480 | Cc1cncn(CCCC2Cc3ccccc3[C@]23CC[C@@](Nc2cccc(Cl)c2)(C(=O)O)CC3)c1=O (some centres unmarked) [Example 183, (1r,4r)-4-(3-chloroanilino)-2′-[3-(5-methyl-6-oxopyrimidin-1 (6H)-yl)propyl]-2′,3′-dihydrospiro[cyclohexane-1,1′-indene]-4-carboxylic acid] |
| 74 | O=C(O)[C@]1(Nc2cccc(Cl)c2)CC[C@@]2(CC1)c1ccccc1CC2CCOc1cccc2[nH]ccc12 (some centres unmarked) [Example 185, (1r,4r)-4-(3-chloroanilino)-2′-{2-[(1H-indol-4-yl)oxy]ethyl}-2′,3′-dihydrospiro[cyclohexane-1,1′-indene]-4-carboxylic acid] |
| 123 | O=C(O)[C@]1(Nc2cccc(Cl)c2)CC[C@@]2(CC1)c1ccccc1CC2CCOc1ccnc2ccsc12 (some centres unmarked) [Example 186, (1r,4r)-4-(3-chloroanilino)-2′-{2-[(thieno[3,2-b]pyridin-7-yl)oxy]ethyl}-2′,3′-dihydrospiro[cyclohexane-1,1′-indene]-4-carboxylic acid] |
| 271 | O=C(O)[C@]1(Nc2cccc(Cl)c2)CC[C@@]2(CC1)c1ccccc1CC2CCOc1ccnc(F)c1 (some centres unmarked) [Example 187, (1r,4r)-4-(3-chloroanilino)-2′-{2-[(2-fluoropyridin-4-yl)oxy]ethyl}-2′,3′-dihydrospiro[cyclohexane-1,1′-indene]-4-carboxylic acid] |
| 214 | O=C(O)[C@]1(Nc2cccc(Cl)c2)CC[C@@]2(CC1)c1ccccc1CC2CCOc1ccncc1F (some centres unmarked) [Example 188, (1r,4r)-4-(3-chloroanilino)-2′-{2-[(3-fluoropyridin-4-yl)oxy]ethyl}-2′,3′-dihydrospiro[cyclohexane-1,1′-indene]-4-carboxylic acid] |
